Measured values as given in the supplement of paper PMC6045584.
± gives the standard deviation of the averaged measurements.

Compound: COc1ccc(C2=N[C@@H](c3ccc(Cl)cc3)[C@@H](c3ccc(Cl)cc3)N2C(=O)N2CCNC(=O)C2)c(OC(C)C)c1 [NUTLIN3]
Experiment: surviving fraction relative to DMSO-only wells; higher = less growth inhibition
Details: 0.5 nM; exposure time: 5 days
Outline: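 Viability was determined by CellTiter-Glo luminescence, expressed as surviving fraction normalised to the median of DMSO-only wells. The cells were log-phase tumour cell lines seeded at 250–500 per well in 384-well plates and, after 24 hours, exposed continuously for five days to inhibitors at 0.5, 1, 5, 10, 50, 100, 500 and 1000 nM. Three screens per line were run, keeping only lines with replicate Pearson r >0.7 and median Z' >0.3.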

SUM149.B1*.S BREAST and 93VU HEADNECK are within error of each other in surviving fraction: 1.03 ± 0.045 for the first, 1 ± 0.12 for the second.

LM7 BONE and 143B BONE are within error of each other in surviving fraction: 0.99 ± 0.075 for the first, 1.04 ± 0.019 for the second.

SUM159 BREAST and SUM149 BREAST are within error of each other in surviving fraction: 1.07 ± 0.059 for the first, 1.03 ± 0.098 for the second.

Going from MDAMB361 BREAST to SAOS2 BONE, the surviving fraction rises from 0.854 ± 0.032 to 1.16 ± 0.028.

Compared with ASKA SYNOVIAL, HCC1395 BREAST is higher in surviving fraction: 1.04 ± 0.04 for the first, 1.18 ± 0.046 for the second.

HCC1954 BREAST and CME SYNOVIAL are within error of each other in surviving fraction: 1.17 ± 0.071 for the first, 1.18 ± 0.1 for the second.

First: VCAP PROSTATE
Second: YAMATO SYNOVIAL
The surviving fraction of the first is lower: 1.03 ± 0.066 for the first, 1.42 ± 0.029 for the second.

HCC202 BREAST and HELA CERVIX are within error of each other in surviving fraction: 1.1 ± 0.15 for the first, 1.01 ± 0.092 for the second.

Going from SG27 HEADNECK to CAL72 BONE, the surviving fraction rises from 1.01 ± 0.02 to 1.09 ± 0.029.

Going from MDAMB134 BREAST to C33A CERVIX, the surviving fraction falls from 1.03 ± 0.011 to 0.888 ± 0.04.

Compared with SKBR3 BREAST, MHM BONE is higher in surviving fraction: 0.795 ± 0.15 for the first, 0.995 ± 0.017 for the second.

VP229 BREAST and SYO1 SYNOVIAL are within error of each other in surviving fraction: 1.16 ± 0.12 for the first, 1.01 ± 0.039 for the second.

ZR751 BREAST and KPD BONE are within error of each other in surviving fraction: 1.26 ± 0.29 for the first, 0.968 ± 0.042 for the second.

SIHA CERVIX and DU4475 BREAST are within error of each other in surviving fraction: 1.05 ± 0.062 for the first, 0.825 ± 0.3 for the second.

BT549 BREAST and COLO320DM LARGE INTESTINE are within error of each other in surviving fraction: 1.16 ± 0.13 for the first, 1.11 ± 0.093 for the second.

T47D BREAST and H23 LUNG are within error of each other in surviving fraction: 1.01 ± 0.029 for the first, 1.02 ± 0.062 for the second.

NCIH441 LUNG and HCT15 LARGE INTESTINE are within error of each other in surviving fraction: 1.04 ± 0.092 for the first, 1.01 ± 0.038 for the second.

SCC90 HEADNECK and MDAMB453 BREAST are within error of each other in surviving fraction: 1.05 ± 0.051 for the first, 1.02 ± 0.053 for the second.

MG63 BONE and A549 LUNG are within error of each other in surviving fraction: 1.01 ± 0.039 for the first, 0.984 ± 0.03 for the second.

Work on MDAMB468 BREAST yielded a surviving fraction of 0.994 ± 0.026.

Same assay, conditions: 1 nM; exposure time: 5 days

SUM149.B1*.S BREAST and 93VU HEADNECK are within error of each other in surviving fraction: 1.07 ± 0.0015 for the first, 0.982 ± 0.14 for the second.

LM7 BONE and 143B BONE are within error of each other in surviving fraction: 0.977 ± 0.082 for the first, 1.02 ± 0.022 for the second.

SUM159 BREAST and SUM149 BREAST are within error of each other in surviving fraction: 1.05 ± 0.04 for the first, 1.12 ± 0.052 for the second.

Going from MDAMB361 BREAST to SAOS2 BONE, the surviving fraction rises from 0.793 ± 0.036 to 0.981 ± 0.037.

ASKA SYNOVIAL and HCC1395 BREAST are within error of each other in surviving fraction: 1.13 ± 0.039 for the first, 1.14 ± 0.1 for the second.

HCC1954 BREAST and CME SYNOVIAL are within error of each other in surviving fraction: 1.16 ± 0.08 for the first, 1.29 ± 0.17 for the second.

Going from VCAP PROSTATE to YAMATO SYNOVIAL, the surviving fraction rises from 1.13 ± 0.049 to 1.32 ± 0.13.

HCC202 BREAST and HELA CERVIX are within error of each other in surviving fraction: 1.07 ± 0.14 for the first, 1 ± 0.039 for the second.

SG27 HEADNECK and CAL72 BONE are within error of each other in surviving fraction: 1.06 ± 0.12 for the first, 1.07 ± 0.033 for the second.

MDAMB134 BREAST and C33A CERVIX are within error of each other in surviving fraction: 0.923 ± 0.0071 for the first, 0.928 ± 0.034 for the second.

SKBR3 BREAST and MHM BONE are within error of each other in surviving fraction: 1.01 ± 0.2 for the first, 0.998 ± 0.019 for the second.

VP229 BREAST and SYO1 SYNOVIAL are within error of each other in surviving fraction: 1.08 ± 0.21 for the first, 0.997 ± 0.038 for the second.

First: ZR751 BREAST
Second: KPD BONE
The surviving fraction of the first is higher: 1.24 ± 0.11 for the first, 0.966 ± 0.049 for the second.

SIHA CERVIX and DU4475 BREAST are within error of each other in surviving fraction: 0.991 ± 0.053 for the first, 0.909 ± 0.2 for the second.

BT549 BREAST and COLO320DM LARGE INTESTINE are the same in surviving fraction: 1.07 ± 0.11 for the first, 1.07 ± 0.019 for the second.

T47D BREAST and H23 LUNG are within error of each other in surviving fraction: 0.993 ± 0.019 for the first, 1.01 ± 0.056 for the second.

NCIH441 LUNG and HCT15 LARGE INTESTINE are within error of each other in surviving fraction: 1.04 ± 0.028 for the first, 1.01 ± 0.013 for the second.

SCC90 HEADNECK and MDAMB453 BREAST are within error of each other in surviving fraction: 1.04 ± 0.22 for the first, 1.05 ± 0.029 for the second.

MG63 BONE and A549 LUNG are within error of each other in surviving fraction: 1 ± 0.014 for the first, 0.996 ± 0.031 for the second.

Test System MDAMB468 BREAST has a surviving fraction of 0.978 ± 0.019.

Same assay, conditions: 5 nM; exposure time: 5 days

SUM149.B1*.S BREAST and 93VU HEADNECK are within error of each other in surviving fraction: 1.05 ± 0.011 for the first, 1.09 ± 0.1 for the second.

LM7 BONE and 143B BONE are within error of each other in surviving fraction: 1.05 ± 0.025 for the first, 1.03 ± 0.029 for the second.

Going from SUM159 BREAST to SUM149 BREAST, the surviving fraction rises from 0.982 ± 0.076 to 1.18 ± 0.053.

Compared with MDAMB361 BREAST, SAOS2 BONE is higher in surviving fraction: 0.809 ± 0.075 for the first, 1.13 ± 0.043 for the second.

ASKA SYNOVIAL and HCC1395 BREAST are within error of each other in surviving fraction: 1.2 ± 0.055 for the first, 1.25 ± 0.022 for the second.

HCC1954 BREAST and CME SYNOVIAL are within error of each other in surviving fraction: 1.11 ± 0.07 for the first, 1.32 ± 0.16 for the second.

Compared with VCAP PROSTATE, YAMATO SYNOVIAL is higher in surviving fraction: 1.17 ± 0.088 for the first, 1.43 ± 0.1 for the second.

HCC202 BREAST and HELA CERVIX are within error of each other in surviving fraction: 1.14 ± 0.14 for the first, 1 ± 0.025 for the second.

SG27 HEADNECK and CAL72 BONE are within error of each other in surviving fraction: 0.998 ± 0.17 for the first, 1.1 ± 0.037 for the second.

MDAMB134 BREAST and C33A CERVIX are within error of each other in surviving fraction: 1.013 ± 0.0085 for the first, 0.919 ± 0.084 for the second.

Going from SKBR3 BREAST to MHM BONE, the surviving fraction rises from 0.869 ± 0.1 to 1.03 ± 0.028.

First: VP229 BREAST
Second: SYO1 SYNOVIAL
The surviving fraction of the first is higher: 1.21 ± 0.029 for the first, 0.993 ± 0.019 for the second.

ZR751 BREAST and KPD BONE are within error of each other in surviving fraction: 1.02 ± 0.18 for the first, 1.05 ± 0.064 for the second.

SIHA CERVIX and DU4475 BREAST are within error of each other in surviving fraction: 1.01 ± 0.12 for the first, 1 ± 0.52 for the second.

BT549 BREAST and COLO320DM LARGE INTESTINE are within error of each other in surviving fraction: 1.07 ± 0.063 for the first, 1.08 ± 0.079 for the second.

T47D BREAST and H23 LUNG are within error of each other in surviving fraction: 0.992 ± 0.043 for the first, 1.02 ± 0.034 for the second.

NCIH441 LUNG and HCT15 LARGE INTESTINE are the same in surviving fraction: 1.01 ± 0.058 for the first, 1.01 ± 0.018 for the second.

SCC90 HEADNECK and MDAMB453 BREAST are within error of each other in surviving fraction: 1.13 ± 0.15 for the first, 1.07 ± 0.053 for the second.

Compared with MG63 BONE, A549 LUNG is lower in surviving fraction: 1.07 ± 0.046 for the first, 0.963 ± 0.026 for the second.

For MDAMB468 BREAST, the surviving fraction was 1.07 ± 0.071.

Same assay, conditions: 10 nM; exposure time: 5 days

SUM149.B1*.S BREAST and 93VU HEADNECK are within error of each other in surviving fraction: 1.07 ± 0.022 for the first, 1.1 ± 0.076 for the second.

LM7 BONE and 143B BONE are within error of each other in surviving fraction: 1.07 ± 0.14 for the first, 1.024 ± 0.0085 for the second.

Compared with SUM159 BREAST, SUM149 BREAST is higher in surviving fraction: 0.991 ± 0.041 for the first, 1.15 ± 0.085 for the second.

Compared with MDAMB361 BREAST, SAOS2 BONE is higher in surviving fraction: 0.844 ± 0.097 for the first, 1.09 ± 0.048 for the second.

Compared with ASKA SYNOVIAL, HCC1395 BREAST is higher in surviving fraction: 1.03 ± 0.015 for the first, 1.12 ± 0.069 for the second.

HCC1954 BREAST and CME SYNOVIAL are within error of each other in surviving fraction: 1.01 ± 0.36 for the first, 1.24 ± 0.13 for the second.

VCAP PROSTATE and YAMATO SYNOVIAL are within error of each other in surviving fraction: 1.25 ± 0.2 for the first, 1.36 ± 0.1 for the second.

HCC202 BREAST and HELA CERVIX are within error of each other in surviving fraction: 1.15 ± 0.17 for the first, 0.984 ± 0.043 for the second.

SG27 HEADNECK and CAL72 BONE are within error of each other in surviving fraction: 1.19 ± 0.19 for the first, 1.08 ± 0.055 for the second.

MDAMB134 BREAST and C33A CERVIX are within error of each other in surviving fraction: 0.84 ± 0.11 for the first, 0.905 ± 0.039 for the second.

SKBR3 BREAST and MHM BONE are within error of each other in surviving fraction: 0.844 ± 0.18 for the first, 1.02 ± 0.024 for the second.

VP229 BREAST and SYO1 SYNOVIAL are within error of each other in surviving fraction: 0.944 ± 0.17 for the first, 0.979 ± 0.036 for the second.

Going from ZR751 BREAST to KPD BONE, the surviving fraction falls from 1.1 ± 0.011 to 0.987 ± 0.023.

SIHA CERVIX and DU4475 BREAST are within error of each other in surviving fraction: 1.07 ± 0.071 for the first, 1.13 ± 0.49 for the second.

BT549 BREAST and COLO320DM LARGE INTESTINE are within error of each other in surviving fraction: 1.12 ± 0.11 for the first, 1.1 ± 0.16 for the second.

T47D BREAST and H23 LUNG are within error of each other in surviving fraction: 1.01 ± 0.051 for the first, 1.04 ± 0.048 for the second.

NCIH441 LUNG and HCT15 LARGE INTESTINE are within error of each other in surviving fraction: 1.05 ± 0.051 for the first, 0.992 ± 0.013 for the second.

SCC90 HEADNECK and MDAMB453 BREAST are within error of each other in surviving fraction: 1.11 ± 0.23 for the first, 1.08 ± 0.024 for the second.

Going from MG63 BONE to A549 LUNG, the surviving fraction falls from 1.05 ± 0.019 to 0.953 ± 0.016.

MDAMB468 BREAST showed a surviving fraction of 1.02 ± 0.067.
